In patent publication US20190365784A1, “USE OF BRASSINOSTEROID ANALOGS FOR THE TREATMENT OF DERMAL DISORDERS BY SELECTIVELY MODULATING LIVER X RECEPTORS (LXR) AND DERMAL DISEASE TREATMENT BY BRASSINOSTEROID ANALOGS ACTING AS SELECTIVE LIVER X RECEPTOR (LXR) MODULATORS” (CONSEJO NACIONAL DE INVESTIGACIONES CIENTÍFICAS Y TÉCNICAS …, priority 2015, published 2019):

How the values were obtained:
ABCA1 [1] = assay: ABCA1 expression in HaCaT cells (real time PCR); format: cell-based, human; details: 10 uM
Method: […] Twenty four hours after irradiation, the cells were harvested and RNA isolated to assess the expression of LXR-alpha, LXR-beta, ABCA1, TNF-alpha, IL-6, and IL-8 genes. HaCaT cells were cultured in DMEM supplemented with 10% (v/v) fetal bovine serum, penicillin (100 U/mL), streptomycin ([…]) and glutamine (2 mM). […] The expressions of ABCA1, TNF-alpha, IL-6, IL-8, LXR-alpha, and LXR-beta were normalized according to glyceraldehyde-3-phosphate dehydrogenase (GAPDH) expression. The results of three independent assays, carried out in duplicate for each condition, are reported.

SRBEP-1 = SRBEP-1 expression in HepG2 cells (real time PCR); format: cell-based, human; details: GW3965 1 uM, 6 h
Method: (§3) The cells were incubated for 6 h in the presence of either Compound I (10 uM), or Compound II (10 uM), or the commercial LXR agonist GW3965 (1 uM), or Vehicle [DMSO, 0.1% (v/v)]). To obtain RNA, at the end of the incubation the cells were collected by centrifugation at 1,000 rpm for 2 min, washed with phosphate buffered saline, and lysed in 300 ul TRIZOL (Invitrogen). RNA samples were suspended in ul of RNAse free water, and their concentration determined (NanoDrop spectrophotometer). The ratio of the absorbance at 260 and 280 nm was used to assess RNA purity of an RNA preparation, with a value of 1.8-2.0 indicating pure RNA. To obtain cDNA, 1 ug of total RNA was denatured by incubating for 5 min at 70° C., before the addition of a mixture containing 0.5 ug oligo-dT primers and 25 ng/ml of random primers (Invitrogen), 1.0 mM dNTPs (Invitrogen), and 200 U M-MLV reverse transcriptase (Promega); after this the mixture was retrotranscribed at 37° C. for 60 min, followed by an incubation at 95° C. for 5 min to inactivate the enzyme. For the real time PCR amplification (Stratagene Thermal Cycler), cDNA samples were diluted 1/5 to 1/10 depending on the target amplification product. Calibration curves were obtained by use of eight successive 1:2 sample dilutions. Amplifications were carried out in a 25 ul final volume (5 ul cDNA sample plus 20 ul of reaction mixture) in the presence of either 3, 4 or 5 mM MgCl2 (depending on the amplified sequence), 0.25 mM dNTPs (Invitrogen), 1.25 U Taq polymerase (Invitrogen), 1 μM of the specific primers according to the target amplification sequence, and 0.025 μl SYBR Green (Roche). Melting curves were used to assess the specificity of the amplification products. […]

IL-8 = IL-8 expression in UV-irradiated HaCaT cells (real time PCR); format: cell-based, human; details: 10 uM, 24 h after UV, normalized to GAPDH
Method: (§1) HaCaT cells—a human immortalized keratinocyte cell line—were exposed to 15 J/m^2 UVB (254 nm) irradiation. Twenty four hours after irradiation, the cells were harvested and RNA isolated to assess the expression of LXR-alpha, LXR-beta, ABCA1, TNF-alpha, IL-6, and IL-8 genes. HaCaT cells were cultured in DMEM supplemented with 10% (v/v) fetal bovine serum, penicillin (100 U/mL), streptomycin ([…]) and glutamine (2 mM). […] The expressions of ABCA1, TNF-alpha, IL-6, IL-8, LXR-alpha, and LXR-beta were normalized according to glyceraldehyde-3-phosphate dehydrogenase (GAPDH) expression. The results of three independent assays, carried out in duplicate for each condition, are reported.

[2] = system: fatty acid synthase (FAS or FASN); assay: FASN expression in HepG2 cells (real time PCR); format: cell-based, human; details: GW3965 1 uM, 6 h
Method: as §3

[3] = system: fatty acid synthase (FAS); assay: FAS expression in HL-60 cells (real time PCR); format: cell-based, human; details: GW3965 1 uM, 6 h
Method: (§2) To investigate the effects of Compounds I and II on the expression of three genes involved in lipid metabolism [fatty acid synthase (FAS); and two ATP-dependent cholesterol and phospholipid transporters, such as ABCA1 and ABCG1], human promyelocytic leukemia cells (HL-60) that endogenously express LXR-alpha and LXR-beta were incubated in the presence of either Comp I or Comp II (10 uM), or GW3965 (1 uM) for 6 h. mRNA levels for FAS, ABCA1 and ABCG1 were determined by real time PCR and results were normalized to GAPDH expression. HL-60 (10^6 cells/well) were cultured in RPMI medium supplemented with 5% (v/v) fetal bovine serum, penicillin (100 IU/mL), streptomycin (100 ug/mL) y cyprofloxacin (0.4 ug/mL). […] To obtain RNA, at the end of the incubation the cells were collected by centrifugation at 1,000 rpm for 2 min, washed with phosphate buffered saline, and lysed in 300 ul TRIZOL (Invitrogen). RNA samples were suspended in […] of RNAse free water, and their concentration determined (NanoDrop spectrophotometer). […] To obtain cDNA, 1 ug of total RNA was denatured by incubating for 5 min at 70° C., before the addition of a mixture containing 0.5 ug oligo-dT primers and 25 ng/ml of random primers (Invitrogen), 1.0 mM dNTPs (Invitrogen), and 200 U M-MLV reverse transcriptase (Promega); after this the mixture was retrotranscribed at 37° C. for 60 min, followed by an incubation at 95° C. for 5 min to inactivate the enzyme. For the real time PCR amplification (Stratagene Thermal Cycler), cDNA samples were diluted 1/5 to 1/10 depending on the target amplification product. Calibration curves were obtained by use of eight successive 1:2 sample dilutions. Amplifications were carried out in a 25 ul final volume (5 ul cDNA sample plus 20 ul of reaction mixture) in the presence of either 3, 4 or 5 mM MgCl2 (depending on the amplified sequence), 0.25 mM dNTPs (Invitrogen), 1.25 U Taq polymerase (Invitrogen), 1 μM of the specific primers according to the target amplification sequence, and 0.025 μl SYBR Green (Roche). […]

ABCG1 [4] = assay: ABCG1 expression in HepG2 cells (real time PCR); format: cell-based, human; details: GW3965 1 uM, 6 h
Method: as §3

LXR-alpha [5] = assay: LXR-alpha expression in HepG2 cells (real time PCR); format: cell-based, human; details: GW3965 1 uM, 6 h
Method: The cells were incubated for 6 h in the presence of either Compound I (10 uM), or Compound II (10 uM), or the commercial LXR agonist GW3965 (1 uM), or Vehicle [DMSO, 0.1% (v/v)]). To obtain RNA, at the end of the incubation the cells were collected by centrifugation at 1,000 rpm for 2 min, washed with phosphate buffered saline, and lysed in 300 ul TRIZOL (Invitrogen). RNA samples were suspended in ul of RNAse free water, and their concentration determined (NanoDrop spectrophotometer). The ratio of the absorbance at 260 and 280 nm was used to assess RNA purity of an RNA preparation, with a value of 1.8-2.0 indicating pure RNA. To obtain cDNA, 1 ug of total RNA was denatured by incubating for 5 min at 70° C., before the addition of a mixture containing 0.5 ug oligo-dT primers and 25 ng/ml of random primers (Invitrogen), 1.0 mM dNTPs (Invitrogen), and 200 U M-MLV reverse transcriptase (Promega); after this the mixture was retrotranscribed at 37° C. for 60 min, followed by an incubation at 95° C. for 5 min to inactivate the enzyme. For the real time PCR amplification (Stratagene Thermal Cycler), cDNA samples were diluted 1/5 to 1/10 depending on the target amplification product. Calibration curves were obtained by use of eight successive 1:2 sample dilutions. […]

ABCA1 [6] = assay: ABCA1 expression in HL-60 cells (real time PCR); format: cell-based, human; details: GW3965 1 uM, 6 h
Method: as §2

ABCG1 [7] = assay: ABCG1 expression in HL-60 cells (real time PCR); format: cell-based, human; details: GW3965 1 uM, 6 h
Method: as §2

TNF-alpha = TNF-alpha expression in UV-irradiated HaCaT cells (real time PCR); format: cell-based, human; details: 10 uM
Method: as §1

LXR-alpha [8] = molecular target: T1, LXR-alpha (Homo sapiens, UniProt Q13133); assay: LXR-alpha/RXR LRE-luciferase reporter in transfected HEK293T cells; format: cell-based; details: GW3965 1 uM, 18 h
T1 sequence (Q13133 1-447): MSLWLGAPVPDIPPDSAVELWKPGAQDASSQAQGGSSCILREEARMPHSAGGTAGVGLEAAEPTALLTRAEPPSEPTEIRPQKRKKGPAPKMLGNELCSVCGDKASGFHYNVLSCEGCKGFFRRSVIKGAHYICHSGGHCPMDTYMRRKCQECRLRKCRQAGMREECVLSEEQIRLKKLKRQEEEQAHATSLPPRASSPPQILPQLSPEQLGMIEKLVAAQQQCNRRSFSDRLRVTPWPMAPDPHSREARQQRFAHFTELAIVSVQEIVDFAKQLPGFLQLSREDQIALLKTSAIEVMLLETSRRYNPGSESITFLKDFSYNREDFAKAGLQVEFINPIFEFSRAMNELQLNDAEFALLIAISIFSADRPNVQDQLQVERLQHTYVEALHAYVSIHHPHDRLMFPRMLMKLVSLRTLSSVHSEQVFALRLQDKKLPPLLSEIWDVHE
T1 sequence (P19793 1-462 partner): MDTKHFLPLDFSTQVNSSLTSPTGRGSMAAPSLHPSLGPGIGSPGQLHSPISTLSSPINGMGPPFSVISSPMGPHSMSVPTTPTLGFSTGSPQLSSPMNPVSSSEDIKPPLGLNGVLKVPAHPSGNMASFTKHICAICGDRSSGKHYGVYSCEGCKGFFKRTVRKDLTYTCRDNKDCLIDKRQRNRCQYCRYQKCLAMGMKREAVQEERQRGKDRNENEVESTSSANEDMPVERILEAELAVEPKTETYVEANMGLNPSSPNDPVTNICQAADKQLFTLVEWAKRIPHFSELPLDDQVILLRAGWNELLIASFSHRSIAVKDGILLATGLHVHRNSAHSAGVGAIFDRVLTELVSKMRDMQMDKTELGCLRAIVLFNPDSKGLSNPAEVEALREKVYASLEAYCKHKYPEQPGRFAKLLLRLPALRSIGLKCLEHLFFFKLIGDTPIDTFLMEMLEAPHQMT
From the text: Since we had previously shown that the beneficial effects of the compounds of the invention are independent of glucocorticoid receptor (GR) activation, we set forth to investigate if they might exert their actions through activation of liver X receptors (LXR). For this purpose we used cultured cells transiently transfected with LXR-alpha, the retinoid X receptor (RXR) and a LXR response element-luciferase reporter (LRE-LUC). A. Human embryonic kidney cells (HEK293T; 5×10^5 cells/well) were cultured in DMEM medium supplemented with 10% (v/v) fetal bovine serum, 100 ug/ml of streptomycin, 100 IU/ml of penicillin and 2 mM glutamine. For the transient transfections, the cell cultures were added with plasmids carrying LXR-alpha (pLXR-alpha; 0.6 ug), the retinoid X receptor (pRXR; 0.2 ug), a LXR response element-luciferase reporter (pRE-LUC; 0.7 ug) and beta-galactosidase gene (pRSV-LacZ; 0.6 ug) as a transfection control, using Lipofectamine 2000 (Invitrogen). […] Compounds III to VI are […] analogs bearing a fluorine atom at C-6. To assess LXR-alpha activation, at the end of the incubation period luciferase activity was measured by use of a luciferase assay system (Promega). The results of three independent assays, carried out in duplicate for each condition, are reported.

LXR-alpha [9] = assay: LXR-alpha expression in UV-irradiated HaCaT cells (real time PCR); format: cell-based, human; details: 10 uM, 24 h after UV, vs. DMSO (UV, 24 h) and GW3965 (UV, 24 h)
Method: as §1

In the case of `O=C(O)Cc1cccc(OCCCN(Cc2cccc(C(F)(F)F)c2Cl)CC(c2ccccc2)c2ccccc2)c1` [GW3965, reference compound], the “induction of ABCA1 expression versus Comp I- or Comp II-treated cells” value (ABCA1 [1]; HaCaT, 24 h after UV exposure) was “stronger”, the “induction of ABCA1 expression versus Comp I- or Comp II-treated cells” value (ABCA1 [1]; non-irradiated HaCaT) was “stronger” and the “SRBEP-1 expression higher than in vehicle (DMSO) treated controls” value (SRBEP-1) was 4.6 times. The “IL-8 expression versus DMSO-treated cells” value (IL-8) was “significantly lower”, the “FASN expression higher than in vehicle (DMSO) treated controls” value [2] was 3.7 times and the “FAS expression higher than in vehicle-treated controls” value [3] was 1.8 times. For the same compound, the “ABCG1 expression higher than in vehicle (DMSO) treated controls” value (ABCG1 [4]) was 60 times, the “induction of LXR-alpha expression compared with DMSO treated HepG2” value (LXR-alpha [5]) was 3.5 times and the “ABCA1 expression higher than in vehicle-treated controls” value (ABCA1 [6]) was ~3 times. The “ABCG1 expression higher than in vehicle-treated controls” value (ABCG1 [7]) was ~10 times, the “TNF-alpha expression versus Comp I-treated cells” value (TNF-alpha; 24 h after UV) was “significantly higher” and the “TNF-alpha expression versus DMSO-treated cells” value (TNF-alpha; 24 h after UV (254 nm, 15 J/m^2), normalized to GAPDH) was “significantly lower”. The “LXR-alpha driven gene expression, increase compared with vehicle-treated cells” value (LXR-alpha [8]) was 3 fold and the LXR-alpha expression (LXR-alpha [9]) was “higher in HaCaT incubated in the presence of DMSO compared with non-irradiated cells and GW3965-treated cells”.
